Reference: US9849174B2, “Methods and compositions related to immunogenic fibrils” (The Board of Regents of the University of Texas System, priority 2009, dated 2017)
Entries after “also recorded” stand apart in the source; their conditions may differ.

Experiments:
[1] = test system: mice; conditions: mouse, in vivo; cited from earlier work
[2] = test system: C57BL/6 mice; assay: Subcutaneous immunization of mice, serum antibody titers and isotypes by ELISA (Example 1); type: in vivo
Procedure: To investigate how fibrillization affected the immunogenicity of OVA, C57BL/6 mice were immunized subcutaneously with the different peptides and boosted with additional peptide at 28 days (see methods). Serum was collected seven days after the boost, and levels of various immunoglobulins were measured.
Immunizations. […] Stock solutions were then diluted in sterile, endotoxin-free PBS to working concentrations. […] CFA-adjuvanted groups received the same volume and total peptide dose, prepared by emulsifying peptide/PBS solutions 1:1 in CFA. […] CFA groups were boosted in incomplete Freund's adjuvant (IFA). Mice receiving mixtures of Q11 and OVA received 100 nmol of each peptide in the first injection and 50 nmol of each in the second. Seven days after the boost, the mice were sacrificed, and sera and spleens were harvested.
Determination of antibody titers. High-binding ELISA plates (eBioscience) were coated with either 20 μg/mL peptide in PBS or PBS alone (for uncoated background subtraction) overnight at 4° C. […] To determine titers for each antiserum, background absorbance values from uncoated wells were subtracted from coated wells, and net absorbances were compared to cutoff values. The cutoff consisted of the mean plus three times the standard deviation of the negative control group (mice receiving OVA without adjuvant) for each corresponding dilution. Any sample dilutions having absorbances above this cutoff value were considered positive readings. The titer was considered as the highest dilution for which it and all lower dilutions had positive readings. If no positive dilutions were present the titer was considered to be 10^2. […] Antibody isotypes were analyzed similarly using a mouse monoclonal antibody kit containing goat anti-mouse IgG1, IgG2a, IgG2b, IgG3, and IgM (Sigma).

[3] = target: T1, streptavidin-conjugated gold particles (Streptomyces avidinii, UniProt P22629); assay: Streptavidin-gold labelling of fibrils imaged by TEM; type: binding; conditions: 5 nm streptavidin-conjugated gold
T1 construct: purchased Sigma
From the text: The availability of the OVA epitope on the surface of O-Q11 nanofibers was confirmed by TEM and by ELISA. To label epitopes in TEM samples, an N-terminally biotinylated O-Q11 was synthesized with a single biotin tag directly adjacent to the OVA sequence. This biotinylated peptide produced fibrils that appeared morphologically similar to O-Q11 (FIG. 2D). Five-nanometer streptavidin-conjugated gold particles were then used to probe epitope availability on the fibril surface, with unmodified Q11 serving as a negative control. […] To confirm this finding and to quantify the availability of the entire epitope, ELISA was employed. Plates coated with OVA and O-Q11 peptides were probed with antisera from mice immunized with OVA, either with or without complete Freund's adjuvant (CFA).
Transmission Electron Microscopy. Peptides were dissolved in deionized water and mixed 6:1 with PBS to produce working peptide concentrations of 330 μM. After fibrillizing for 4h, peptides were applied to 400 mesh gold grids with carbon support films, negative-stained with 1% uranyl acetate, and imaged on a Tecnai F30 TEM. For gold staining, prior to negative-staining grids were placed upside-down on a droplet of blocking solution (0.2% acetylated BSA, 0.1% gelatin from cold water fish skin in PBS) for 5 min, then for 2 h on a droplet of 5 nm colloidal gold conjugated to streptavidin (Sigma). […]

[4] = ranges: high and low values among three batches for each peptide
Procedure: Endotoxin levels of all formulations were tested using a Limulus Amebocyte Lystae (LAL) chromogenic end point assay (Lonza, USA).
To account for batch-to-batch variability three different sets of peptides were synthesized for immunizing mice.

[5] = test system: primary human endothelial cells; conditions: cited from earlier work
[6] = test system: CFSE labeled OTII cells; assay: Adoptive transfer of CFSE-labeled OTII T cells and immunization; type: in vivo, mice; conditions: 100 nmol s.c., five days after immunization, spleen and lymph nodes
Procedure: Antibody responses to self-assembled peptides are T cell-dependent. […] To determine the requirement for T cells, an adoptive T cell transfer assay was performed. Specifically, mice were injected with CFSE labeled […] cells, which express receptors for the H-2^b restricted OVA epitope. Antigen-mediated proliferation causes a decrease in the CFSE intensity which can be detected by flow cytometry.
Adoptive Transfer of T cells OTII transgenic mice on C57BL/6 background, whose T cells recognize the OVA peptide and carry a marker to distinguish them from naïve T cells from B6 mice (CD90.1 congenic). In vivo CD4+ T cell proliferation was analyzed after adoptive transfer into mice and immunization with the peptides. Briefly, splenocytes and lymph nodes of OTII+ C57BL/6 mice were processed into a single cell suspension and enriched for CD4+ T cells, by negative magnetic separation (Miltenyi Biotec). […] After staining, cells were washed twice with FACS buffer and samples were run on the LSR-II (BD Biosciences, NJ) flow cytometer and analyzed for evidence of proliferation as indicated by dilution of CFSE intensity using. FlowJo cytometry analysis software (Tree Star, OR) was used to analyze and quantify the results. […]

[7] = test system: rat myocardium; conditions: in vivo; cited from earlier work
[8] = test system: mouse myocardium; conditions: in vivo; cited from earlier work

T1 sequence (P22629 25-183): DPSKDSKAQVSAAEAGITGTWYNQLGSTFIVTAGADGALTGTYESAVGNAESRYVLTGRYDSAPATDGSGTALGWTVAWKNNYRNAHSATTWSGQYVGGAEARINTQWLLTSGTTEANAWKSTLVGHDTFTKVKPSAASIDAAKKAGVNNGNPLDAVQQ

Substance | Antibody responses [1] | Total IgG response ([2]; delivered in CFA) | Total IgG response ([2]; delivered with or without CFA) | Total IgG response ([2]; peptide in PBS without added adjuvant, s.c., boost day 28, serum 7 days after boost) | Binding of streptavidin-gold to fibrils [3] | Endotoxin [4] | Cell death / cytotoxicity in primary cell cultures [5] | Transferred cells that proliferated (shift in CFSE intensity) [6] | Tissue responses [7] | Tissue responses [8]
Ac-QQKFQFQFEQQ-NH2 [Peptide Q11, Ac-QQKFQFQFEQQ-Am] | little to no antibody responses | non-immunogenic even in CFA | did not raise any detectable IgG | did not elicit a response | negligible numbers of particles; also recorded: did not bind streptavidin-gold | 0.024-0.098 EU/mL | did not induce cell death | negligible shift in CFSE intensity | – | –
n-RARADADARARADADA-c [RAD16-II] | – | – | – | – | – | – | – | – | Negligible tissue responses | Negligible tissue responses
